Reference: US20250387771A1, “COMPOSITION COMPRISING BIODEGRADABLE MICROCAPSULES” (priority 2022, published 2025)

Test system: biological contamination of microcapsule compositions
Test: Preservation of microcapsule compositions against biological contamination over time by conventional preservation agents
Conditions: agent used alone; one month or more

Compound | Prevention of biological contamination of microcapsule compositions over time
O=C(O)c1ccccc1 [benzoic acid] | unable, when used alone, to prevent the biological contamination of microcapsule compositions over time
p-hydroxybenzoic esters | unable, when used alone, to prevent the biological contamination of microcapsule compositions over time
